Test results from ChEMBL document CHEMBL4834490, “Novel Bromodomain Inhibitors for Treating Cancer, Fibrosis, and Inflammatory Disorders” (ACS Med Chem Lett, 2021).

Key:
[1] = biological target: T1, Bromodomain-containing protein 4 (Homo sapiens, UniProt O60885); experiment: Inhibition of binding of N-terminal His-tagged human full length recombinant BRD4 (2 to 1362 residues) expressed in baculovirus-infected Sf9 cells with acetylated histone H4 peptide (1 to 21) preincubated for 30 mins followed by H4 ligand addition and measured after 30 mins AlphaScreen assay
[2] = biological target: T1, Bromodomain-containing protein 4; experiment: Binding affinity to DNA-tagged human BRD4 (BD1,2) isoform long expressed in Escherichia coli BL21 incubated for 1 hr by competitive ligand binding BROMOscan assay

| Structure (SMILES) | IC50 [1] [nM] | Kd [2] [nM] |
| --- | --- | --- |
| Cn1cc(-c2ccc3nc(-c4cnn(CC(C)(C)O)c4)nc(N4CCOC[C@@H]4c4ccc(F)cc4)c3c2)c2cc[nH]c2c1=O | < 100 | < 100 |
| Cc1cc(-c2ccc3nc(-c4cnn(CC(C)(C)O)c4)nc(N4CCOC[C@@H]4c4ccccc4)c3c2)cn(C)c1=O | < 100 | < 100 |
| Cn1cc(-c2ccc3nc(-c4cnn(CC(C)(C)O)c4)nc(N4CCOC[C@@H]4c4ccccc4)c3c2)c2cc[nH]c2c1=O | < 100 | < 100 |

Other lines, results leading:

| IC50 [1] [nM] | Kd [2] [nM] | Structure (SMILES) |
| --- | --- | --- |
| 100 | < 100 | Cc1cc(-c2ccc3nc(-c4cnn(CC(C)(C)O)c4)nc(N4CCOC[C@@H]4C4CC4)c3c2)cn(C)c1=O |
| < 100 | < 100 | Cn1cc(-c2ccc3nc(-c4cnn(CC(C)(C)O)c4)nc(N4CCOC[C@@H]4C4CC4)c3c2)c2cc[nH]c2c1=O |
| < 100 | < 100 | Cc1cc(-c2ccc3nc(-c4cnn(CC(C)(C)O)c4)nc(N4CCOC[C@@H]4c4ccc(F)cc4)c3c2)cn(C)c1=O |
